Test [1] has as its target T1, VEGF-R2 kinase domain (Rattus norvegicus, UniProt O08775).
T1 construct: polyhistidine (N)
Nature of the test: VEGF-R2 screening assay (33P-ATP FlashPlate kinase assay). Type of test: biochemical. To be noted: for IC50: 10 μM ATP; for inhibition at 100 µM: single test concentration 100 μM. The protocol:
(§1) 70 μL of the kinase reaction mixture was dispensed into the well of a streptavidin coated FlashPlate™ (Cat. # SMP103, NEN, Boston, Mass.).
(§2) Test compound stock in 100% DMSO (1 μL) was added to the wells resulting in a final concentration of 1% DMSO in the reaction with a 100 μL final reaction volume. Each enzyme was diluted in 50 mM Tris-HCl pH=8.0, 0.1% BSA and 30 μL was added to each well to initiate the reaction. The reaction was incubated for one hour at 30° C. At the end of the 1 hr incubation, the reaction was terminated by aspirating the mixture from the plate and washing the wells twice with PBS containing 100 mM EDTA. The biotinylated peptide substrate became immobilized on the Flashplate™ and the incorporation of ^33P-γ-ATP was measured by reading the plate on a scintillation counter. Inhibition of the enzymatic activity was measured by observing a reduced amount of ^33P-γ-ATP incorporated into the immobilized peptide.
The assay used 150 ng of the N-terminal biotinylated peptide biotin-[…]-amide (VEGF-R2) per well.
(§3) A maximum and minimum signal for the assay was determined on each plate. The percent inhibition of a test compound was calculated according to the formula: [formula]

The target of test [2] is T2, Aurora-A (Mus musculus, UniProt P97477).
T2 construct: followed by the full length protein encoding the murine Aurora-A; polyhistidine (N); made in house; host or cells: Sf9 insect cells
T2 sequence (P97477 1-395): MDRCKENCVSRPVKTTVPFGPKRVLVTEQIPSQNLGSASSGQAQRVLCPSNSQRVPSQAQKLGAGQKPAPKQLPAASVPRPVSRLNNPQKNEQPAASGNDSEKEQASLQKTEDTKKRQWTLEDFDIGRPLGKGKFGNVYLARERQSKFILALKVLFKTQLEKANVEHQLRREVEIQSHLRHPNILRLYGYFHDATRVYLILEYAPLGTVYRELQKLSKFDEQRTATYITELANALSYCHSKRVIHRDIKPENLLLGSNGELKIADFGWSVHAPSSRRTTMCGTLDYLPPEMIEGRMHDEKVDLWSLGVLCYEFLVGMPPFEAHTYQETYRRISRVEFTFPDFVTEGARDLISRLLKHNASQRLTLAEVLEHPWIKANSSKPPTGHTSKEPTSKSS
Nature of the test: Aurora-A screening assay (33P-ATP FlashPlate kinase assay). Format: biochemical, murine. The conditions noted are these: for IC50: 10 μM ATP; for inhibition at 100 µM: single test concentration 100 μM. On the procedure:
as §1, §2
Aurora-A is a fusion protein containing a polyhistidine tag at the N terminus followed by the full length protein encoding the murine Aurora-A (Accession number GB BC014711) expressed and purified from sf9 insect cells. The assay used 400 ng of the N-terminal biotinylated peptide biotin-[…]-amide (Aurora-A) per well.
as §3

The test system of test [3] is HeLa cervical adenocarcinoma. Nature of the test: Cell proliferation inhibition assay (14C-thymidine incorporation), HeLa. Type of test: cell-based. To be noted: Homo sapiens. The text has this:
(§4) The ability of a test compound to inhibit unregulated cell proliferation may be determined by measuring incorporation of ^14C-labelled thymidine into newly synthesized DNA within cell lines derived from carcinomas originating from several tissues. Accordingly, the effect of a test compound on proliferation of cells with a variety of phenotypes may be determined.
(§5) Carcinoma cell lines used include the HeLa cervical adenocarcinoma from the American Type Culture Collection (ATCC Cat. #CCL2), A375 malignant melanoma (ATCC Cat. #CRL-1619) and HCT-116 colon carcinoma (ATCC Cat. #CCL-247).
(§6) The carcinoma cells are trypsinized and counted. The cells (3000-8000 count) are added to each well of a 96-well CytoStar tissue culture treated scintillating microplate (Amersham #RPNQO160) in complete medium (100 μL) and the plate is then incubated in complete medium for 24 hrs at 37° C. in an inert atmosphere containing 5% CO2.
(§7) Test compound (1 μL) in 100% DMSO is added to the plate test-wells with DMSO only added to control-wells. The plate is incubated in complete medium for a second 24 hr period at 37° C. in an atmosphere containing 5% CO2.
(§8) An aliquot of a solution of Methyl ^14C-thymidine (56 mC/mmol) (NEN #NEC568 or Amersham #CFA532) and complete medium (20 uL to provide 0.2 μCi/well) is then added to each well and the plate is incubated for a third 24 hr period at 37° C. in an atmosphere containing 5% CO2.
(§9) The plate contents are then discarded, the plate is washed twice with PBS (200 μL) and then PBS (200 μL) is added to each well. The plate is sealed and the degree of methyl ^14C-thymidine incorporation is quantified on a Packard Top Count.
(§10) For a series of test concentrations, the IC50 was derived by graphing percent inhibition against the log of the concentrations tested for a given compound with results shown in Table 2.
For orientation: Incorporation of labelled thymidine or its analogues reports DNA synthesis.

Test [4] deals with A375 malignant melanoma. Nature of the test: Cell proliferation inhibition assay (14C-thymidine incorporation), A375. Type of test: cell-based. The conditions noted are these: Homo sapiens, A-375.
Source text: as §4, §5, §6, §7, §8, §9, §10

Test [5] deals with HCT-116 colon carcinoma. Kind of test: Cell proliferation inhibition assay (14C-thymidine incorporation), HCT116. Format: cell-based. The conditions noted are these: Homo sapiens.
Source text: as §4, §5, §6, §7, §8, §9, §10

Setting [6] is: read-out: Aurora-A percent inhibition.
[7] abbreviates: read-out: VEGF-R2 percent inhibition.

Bounds are passed on as bounds.

T1 sequence (O08775 786-1343): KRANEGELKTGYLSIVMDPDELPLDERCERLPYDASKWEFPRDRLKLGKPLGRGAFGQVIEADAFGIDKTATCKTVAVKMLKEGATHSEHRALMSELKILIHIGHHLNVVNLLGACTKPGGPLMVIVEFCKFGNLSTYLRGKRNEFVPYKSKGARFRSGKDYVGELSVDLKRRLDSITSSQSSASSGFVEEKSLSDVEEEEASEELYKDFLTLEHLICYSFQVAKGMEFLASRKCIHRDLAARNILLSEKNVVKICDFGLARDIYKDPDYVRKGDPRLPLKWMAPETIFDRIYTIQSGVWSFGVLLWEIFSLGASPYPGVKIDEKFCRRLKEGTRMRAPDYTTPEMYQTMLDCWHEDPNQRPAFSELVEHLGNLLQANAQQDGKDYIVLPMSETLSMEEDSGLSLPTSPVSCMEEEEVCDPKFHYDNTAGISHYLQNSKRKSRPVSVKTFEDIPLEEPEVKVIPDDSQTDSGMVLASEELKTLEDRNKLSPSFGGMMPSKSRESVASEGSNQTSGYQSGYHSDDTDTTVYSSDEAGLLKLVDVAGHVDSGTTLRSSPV

Take `CCN1CCN(CCCOc2ccc3[nH]c(-c4cccc5c4C(=O)NC5)cc3c2)CC1` [Cpd 1, 7-{5-[3-(4-ethyl-piperazin-1-yl)-propoxy]-1H-indol-2-yl}-2,3-dihydro-isoindol-1-one]: the IC50 in test [1] was determined as 14 nM; in test [2], 44 nM; in test [3] it was 5.31 µM; in test [4] it was 3.9 µM; in test [5], 3.85 µM.
Consider `O=C1NCc2cccc(-c3cc4cc(OCCCN5CCC(CO)CC5)ccc4[nH]3)c21` [Cpd 2, 7-{5-[3-(4-hydroxymethyl-piperidin-1-yl)-propoxy]-1H-indol-2-yl}-2,3-dihydro-isoindol-1-one], for which the IC50 in test [1] is 18 nM; in test [2], 61 nM; in test [3] it was 3.35 µM; in test [4] it was 0.763 µM; in test [5] it was 2.26 µM.
With `COc1ccc2[nH]c(-c3cccc4c3C(=O)NC4)cc2c1` [Cpd 3, 7-(5-methoxy-1H-indol-2-yl)-2,3-dihydro-isoindol-1-one], the IC50 in test [1] was 111 nM; in test [2], 70 nM; in test [3], > 100 µM; in test [4], > 100 µM; in test [5] it was > 100 µM.
For `O=C1NCc2cccc(-c3cc4cc(O)ccc4[nH]3)c21` [Cpd 4, 7-(5-hydroxy-1H-indol-2-yl)-2,3-dihydro-isoindol-1-one], the IC50 in test [1] was found to be 119 nM; in test [2] it was 90 nM; in test [3] it was 3.64 µM; in test [4], 4.85 µM; in test [5], 6.09 µM.
As to `O=C1NCc2cccc(-c3cc4cc(OCCCO)ccc4[nH]3)c21` [Cpd 5, 7-[5-(3-hydroxy-propoxy)-1H-indol-2-yl]-2,3-dihydro-isoindol-1-one], the IC50 in test [1] was 30 nM; in test [2], 100 nM; in test [3], 15 µM; in test [4], 4.4 µM; in test [5], 6.47 µM.
Taken in the same sequence, the figures for `COc1cc2c(c(-c3cc4cc(OC)ccc4[nH]3)c1)C(=O)NC2` [Cpd 6, 5-methoxy-7-(5-methoxy-1H-indol-2-yl)-2,3-dihydro-isoindol-1-one] were 103 nM, 100 nM, 5.08 µM, 3.02 µM and 4.28 µM.
Taken in the same sequence, the figures for `O=C1NCc2cccc(-c3cc4ccccc4[nH]3)c21` [Cpd 7, 7-(1H-indol-2-yl)-2,3-dihydro-isoindol-1-one] were 144 nM, 100 nM, 3.71 µM, 5.56 µM and 5.04 µM.
Taken in the same sequence, the figures for `O=C1NCc2cccc(-c3cc4cc(OCCN5CCOCC5)ccc4[nH]3)c21` [Cpd 8, 7-[5-(2-morpholin-4-yl-ethoxy)-1H-indol-2-yl]-2,3-dihydro-isoindol-1-one] were 74 nM, 135 nM, 5.81 µM, 2.7 µM and 5.74 µM.
Regarding `O=C1NCc2cccc(-c3cc4cc(OCCCN5CCCCC5)ccc4[nH]3)c21` [Cpd 9, 7-[5-(3-piperidin-1-yl-propoxy)-1H-indol-2-yl]-2,3-dihydro-isoindol-1-one], the IC50 in test [1] came to 65 nM; in test [2] it was 179 nM; in test [3] it was 6.06 µM; in test [4] it was 4.03 µM; in test [5], 7.77 µM.
The corresponding values for `O=C1NCc2cccc(-c3cc4cc(OCCN5CCCCC5)ccc4[nH]3)c21` [Cpd 10, 7-[5-(2-piperidin-1-yl-ethoxy)-1H-indol-2-yl]-2,3-dihydro-isoindol-1-one] are 56 nM, 200 nM, 4.63 µM, 0.437 µM and 2.34 µM.
The corresponding values for `COc1ccc2[nH]c(-c3cccc4c3C(=O)NC4)nc2c1` [Cpd 11, 7-(5-methoxy-1H-benzoimidazol-2-yl)-2,3-dihydro-isoindol-1-one] are 142 nM, 205 nM, > 10 µM, > 10 µM and > 10 µM.
The corresponding values for `O=C1NCc2cccc(-c3ccc[nH]3)c21` [Cpd 12, 7-(1H-pyrrol-2-yl)-2,3-dihydro-isoindol-1-one] are 1100 nM, 338 nM, 52.6 µM, > 10 µM and > 100 µM.
`COc1ccc2c(c1)cc(-c1ccc([N+](=O)[O-])c3c1C(=O)NC3)n2C(=O)OC(C)(C)C` [Cpd 15, 5-methoxy-2-(7-nitro-3-oxo-2,3-dihydro-1H-isoindol-4-yl)-indole-1-carboxylic acid tert-butyl ester]: the IC50 in test [1] was 1520 nM; in test [2] it was 270 nM.
Taken in the same sequence, the figures for `COc1ccc2[nH]c(-c3ccc(N)c4c3C(=O)NC4)cc2c1` [Cpd 17, 4-amino-7-(5-methoxy-1H-indol-2-yl)-2,3-dihydro-isoindol-1-one] were 53.2 nM and 432 nM.
For `COc1ccc2[nH]c(-c3ccc(NC(C)=O)c4c3C(=O)NC4)cc2c1` [Cpd 18, N-[7-(5-methoxy-1H-indol-2-yl)-1-oxo-2,3-dihydro-1H-isoindol-4-yl]-acetamide], the half-maximal inhibitory concentration (IC50) in test [1] was > 100000 nM. Also, the inhibition at 100 µM in test [2] (setting [6]) came to 64%.
As for `O=C1NCc2cccc(-c3cc4cc(OCc5ccccc5)ccc4[nH]3)c21` [Cpd 19, 7-(5-benzyloxy-1H-indol-2-yl)-2,3-dihydro-isoindol-1-one], the IC50 in test [1] came out at 11300 nM; in test [2], 21200 nM.
As for `O=C1NCc2cccc(-c3c[nH]c4ccccc34)c21` [Cpd 20, 7-(1H-Indol-3-yl)-2,3-dihydro-isoindol-1-one], the values for the inhibition at 100 µM in test [1] (setting [7]) and in test [2] (setting [6]) were 50% and 60%, respectively.
Take `COc1ccc2[nH]c(-c3cccc4c3C(=O)NC4=O)cc2c1` [Cpd 22, 4-(5-methoxy-1H-indol-2-yl)-isoindole-1,3-dione]: the inhibition at 0.1 µM in test [1] (single test concentration 0.1 μM, read-out: VEGF-R2 percent inhibition) was found to be 35%; in test [2] (single test concentration 0.1 μM, read-out: Aurora-A percent inhibition) it was 30%.
In the case of `CC(C)(C)OC(=O)n1cccc1-c1cccc2c1C(=O)NC2` [Cpd 23, 2-(3-oxo-2,3-dihydro-1H-isoindol-4-yl)-pyrrole-1-carboxylic acid tert-butyl ester], the inhibition at 100 µM in test [1] (setting [7]) worked out at 46%; in test [2] (setting [6]), 25%.
On to `CN1Cc2cccc(-c3ccc[nH]3)c2C1=O` [Cpd 25, 2-methyl-7-(1H-pyrrol-2-yl)-2,3-dihydro-isoindol-1-one], for which the inhibition at 100 µM in test [1] (setting [7]) is 37%. Besides, the IC50 in test [2] was > 100000 nM.
Turning to `CC(C)(C)OC(=O)n1c(-c2cccc3c2C(=O)NC3)cc2ccccc21` [Cpd 26, 2-(3-oxo-2,3-dihydro-1H-isoindol-4-yl)-indole-1-carboxylic acid tert-butyl ester], the inhibition at 100 µM in test [1] (setting [7]) turned out to be 34%; in test [2] (setting [6]), 61%.

For orientation: IC50 means the concentration needed to halve the response being measured. The low end stands for inhibition by little substance, the high end for a need for much substance. One may read the inhibition as the change of the read-out against control, counted positive when it falls.

(Values after patent US20070161648A1, “Substituted dihydro-isoindolones useful in treating kinase disorders” (priority 2005, published 2007).)
